Columns and labels:
[1] = tested on: Candida albicans; experiment: Antimicrobial action, microbe count (procedure as Example 1); format: cell-based; conditions: for Δlog: t24 h vs t0
Procedure: (§1) For sample preparation, the substance I-2 being investigated is homogeneously dispersed in an amount of 1.0% in a water/ethanol mixture (12% of ethanol) (=sample). A suspension of Staphylococcus epidermidis (ATCC 12228) having an optical density of 1.0 in CASO broth (Merck 1.05459) is diluted 1:10000 with CASO broth. 500 μl of sample are added to 500 μl of microorganism suspension, and the mixture is incubated at 35° C. for 24 h or 48 h. After the incubation, the test batches are diluted to −6 in 10 unit steps, and 0.1 ml of each is plated-out on CASO agar (Merck 1.05458) and incubated at 35° C. for 24 h.
(§2) In order to determine the initial microbe count, 0.1 ml of the bacteria suspension used are plated-out on CASO agar (Merck 1.05458) and incubated at 35° C. for 24 h.
(§3) The colonies are subsequently counted, and the microbe count per ml is determined compared with the negative control (12% of ethanol in water).
(§4) Procedure in Accordance with Example 1
(§5) The concentrations indicated are the final use concentrations. In order to prepare the stock solution, double the final concentration are prepared in the solvent indicated. This is subsequently diluted 1:2 with the corresponding microbe suspension. In the case of Aspergillus brasiliensis, the microbe count determination is exceptionally carried out after 48 h, in the case of Malassezia furfur after 72 h.

[2] = tested on: Echerichia coli; experiment: as above; format: cell-based, Escherichia coli; conditions: for Δlog: t24 h vs t0
Procedure: as §1, §2, §3, §4, §5

[3] = tested on: Aspergillus brasiliensis; experiment: Antimicrobial action, microbe count (procedure as Example 1, count after 48 h); format: cell-based; conditions: for Δlog: count after 48 h vs t0; for Microbe count t24 h: count after 48 h
Procedure: as §1, §2, §3, §4, §5

[4] = tested on: Malassezia furfur; experiment: Antimicrobial action, microbe count (procedure as Example 1, count after 72 h); format: cell-based; conditions: 1.0% in H2O
Procedure: as §1, §2, §3, §4, §5

[5] = tested on: Corynebacterium xerosis; experiment: Antimicrobial action, microbe count (procedure as Example 1); format: cell-based; conditions: 0.5% in H2O
Procedure: as §1, §2, §3, §4, §5

[6] = tested on: Propionibacterium acnes; experiment: as above; format: cell-based; conditions: for Δlog: t24 h vs t0
Procedure: as §1, §2, §3, §4, §5

[7] = tested on: Staphylococcus aureus; experiment: as above; format: cell-based; conditions: 1.0% in H2O(12% of ethanol)
Procedure: as §1, §2, §3, §4, §5

[8] = tested on: Serratia marcescens; experiment: as above; format: cell-based; conditions: for Δlog: t24 h vs t0
Procedure: as §1, §2, §3, §4, §5

[9] = tested on: Salmonella enterica; experiment: as above; format: cell-based; conditions: for Δlog: t24 h vs t0
Procedure: as §1, §2, §3, §4, §5

[10] = Measurement of density and viscosities (Ubbelohde viscometer) to estimate spreadability; format: physicochemical
Procedure: After measurement of the densities and kinematic viscosities using an Ubbelohde viscometer, the following dynamic viscosities arise:
Kinematic viscosity of I-1: 15.2 mm^2/s Density of I-1: 0.9897 g/cm^3; 25° C.
Dynamic viscosity of I-1=kinematic viscosity of I-1×density I-1=15.0 [mPas]
Since spreadabilities and viscosities of cosmetic emollients correlate well, good spreadabilities can be concluded from the viscosities determined.

[11] = tested on: Staphylococcus epidermidis (ATCC 12228); experiment: Antimicrobial action, microbe count after incubation in CASO broth; format: cell-based; conditions: sample 1.0% in water/ethanol (12% of ethanol), 500 µl sample + 500 µl suspension; 35° C., 24 h or 48 h; initial count 5.8 × 10^4
Procedure: as §1, §2, §3

[12] = 0.25% in H2O, count t0 1.3 × 10^6
[13] = 0.25% in H2O, count t0 3.2 × 10^5

CC(O)COC1CCCCC1 (stereo not shown) [Substance I-9]
Microbe count t24 h [1, 12]: 1.4 × 10^6 | Δlog ([1]; 0.25% in H2O): +0.04 | Microbe count t24 h [2, 13]: 4.30 × 10^8 | Δlog ([2]; 0.25% in H2O): +3.13

OCCOC1CCCCC1 [Substance I-1]
Δlog ([3]; 1.0% in H2O(12% of ethanol)): −0.90 | Microbe count t24 h ([3]; 1.0% in H2O(12% of ethanol), count t0 8.0 × 10^2): 1.0 × 10^2 | Δlog ([4]; count after 72 h vs t0): −2.60 | Microbe count t24 h ([4]; count t0 4.0 × 10^2, count after 72 h): 0 | Microbe count t24 h ([5]; count t0 1.0 × 10^6): 2.0 × 10^6 | Δlog ([5]; t24 h vs t0): +0.30 | Microbe count t24 h ([6]; 1.0% in H2O, count t0 7.8 × 10^5): 7.0 × 10^5 | Δlog ([6]; 1.0% in H2O): −0.05 | Microbe count t24 h ([7]; count t0 7.2 × 10^4): 2.5 × 10^2 | Δlog ([7]; t24 h vs t0): −2.46 | Microbe count t24 h ([8]; 0.5% in H2O, count t0 2.9 × 10^5): 1.7 × 10^4 | Δlog ([8]; 0.5% in H2O): −1.23 | Microbe count t24 h ([8]; 1.0% in H2O, count t0 2.5 × 10^5): 0 | Δlog ([8]; 1.0% in H2O): −5.40 | Microbe count t24 h ([9]; 0.5% in H2O, count t0 1.0 × 10^6): 9.0 × 10^3 | Δlog ([9]; 0.5% in H2O): −2.05 | Microbe count t24 h ([9]; 0.8% in H2O(12% of ethanol), count t0 1.3 × 10^4): 0 | Δlog ([9]; 0.8% in H2O(12% of ethanol)): −4.11 | Microbe count t24 h [1, 12]: 4.3 × 10^6 | Δlog ([1]; 0.25% in H2O): +0.53 | Microbe count t24 h ([1]; 1.0% in H2O(12% of ethanol), count t0 6.0 × 10^3): 0 | Δlog ([1]; 1.0% in H2O(12% of ethanol)): −3.78 | Microbe count t24 h [2, 13]: 8.0 × 10^8 | Δlog ([2]; 0.25% in H2O): +3.40 | Microbe count t24 h ([2]; 0.8% in H2O(12% of ethanol), count t0 6.3 × 10^4): 0 | Δlog ([2]; 0.8% in H2O(12% of ethanol)): −4.80 | Density ([10]; 25° C.): 0.9897 g/mL | Kinematic viscosity ([10]; Ubbelohde viscometer): 15.2 mm^2/s | Dynamic viscosity ([10]; kinematic viscosity × density): 15.0 mPas

OCCOC1CCC(OCCO)CC1 (stereo not shown) [Substance I-3, 2-[4-(2-hydroxyethoxy)cyclohexyloxy]ethanol]
Microbe count t24 h ([3]; 0.5% in H2O, count t0 2.8 × 10^4): 1.6 × 10^4 | Δlog ([3]; 0.5% in H2O, t0 2.8 × 10^4): −0.24 | Δlog ([3]; 1.0% in H2O): −1.30 | Microbe count t24 h ([3]; 1.0% in H2O, count t0 2.8 × 10^4): 1.4 × 10^3 | Microbe count t24 h ([6]; 0.5% in H2O, count t0 3.4 × 10^5): 4.0 × 10^7 | Δlog ([6]; 0.5% in H2O): +2.07

COC1CCC(O)CC1 (stereo not shown) [Substance I-2]
Final microbe count [11]: 4.0 × 10^4 CFU/ml

— patent publication US20150118165A1, “USE OF CYCLOHEXANOL ETHERS HAVING ANTIMICROBIAL PROPERTIES” (Merck Patent GmbH, priority 2012, published 2015)
